Experimental data taken from publication PMC10046369, “Low-Affinity/High-Selectivity Dopamine Transport Inhibition Sufficient to Rescue Cognitive Functions in the Aging Rat” (Biomolecules, 2023).

Columns and labels:
PFCDPK1(P.falciparum) = target: T1, PFCDPK1(P.falciparum) (Plasmodium falciparum, UniProt P62344); test: biochemical; design: KINOMEscan competition binding panel, per cent of control; settings: read-out: %Ctrl @ 2800nM
T1 construct: gene CDPK1

PFPK5(P.falciparum) = target: T2, PFPK5(P.falciparum) (Plasmodium falciparum, UniProt P61075); test: biochemical; design: KINOMEscan competition binding panel, per cent of control; settings: read-out: %Ctrl @ 2800nM
T2 construct: gene CRK2

APJ (apelin) = target: T3, APJ (apelin) (Homo sapiens, UniProt P35414); test: cell-based; design: Eurofins Cerep functional GPCR screen, antagonist mode, inhibition of control agonist response; settings: read-out: % Inhibition of Control Agonist Response, Mean
T3 construct: gene APLNR

AT1 = target: T4, AT1 (Homo sapiens, UniProt P30556); test: cell-based; design: Eurofins Cerep functional GPCR screen, antagonist mode, inhibition of control agonist response; settings: read-out: % Inhibition of Control Agonist Response, Mean
T4 construct: gene AGTR1

B1 = target: T5, B1 (Homo sapiens, UniProt P46663); test: cell-based; design: Eurofins Cerep functional GPCR screen, antagonist mode, inhibition of control agonist response; settings: read-out: % Inhibition of Control Agonist Response, Mean
T5 construct: gene BDKRB1

BB2 = target: T6, BB2 (Homo sapiens, UniProt P30550); test: cell-based; design: Eurofins Cerep functional GPCR screen, antagonist mode, inhibition of control agonist response; settings: read-out: % Inhibition of Control Agonist Response, Mean
T6 construct: gene GRPR

BLT1 (LTB4) = target: T7, BLT1 (LTB4) (Homo sapiens, UniProt Q15722); test: cell-based; design: Eurofins Cerep functional GPCR screen, antagonist mode, inhibition of control agonist response; settings: read-out: % Inhibition of Control Agonist Response, Mean
T7 construct: gene LTB4R

CCK1 (CCKA) = target: T8, CCK1 (CCKA) (Homo sapiens, UniProt P32238); test: cell-based; design: Eurofins Cerep functional GPCR screen, antagonist mode, inhibition of control agonist response; settings: read-out: % Inhibition of Control Agonist Response, Mean
T8 construct: gene CCKAR

CCR2 = CCR2 (Homo sapiens, UniProt P41597); test: cell-based; design: Eurofins Cerep functional GPCR screen, antagonist mode, inhibition of control agonist response; settings: read-out: % Inhibition of Control Agonist Response, Mean
CCR7 = CCR7 (Homo sapiens, UniProt P32248); test: cell-based; design: Eurofins Cerep functional GPCR screen, antagonist mode, inhibition of control agonist response; settings: read-out: % Inhibition of Control Agonist Response, Mean
CX3CR1 = CX3CR1 (Homo sapiens, UniProt P49238); test: cell-based; design: Eurofins Cerep functional GPCR screen, antagonist mode, inhibition of control agonist response; settings: read-out: % Inhibition of Control Agonist Response, Mean
CXCR5 = CXCR5 (Homo sapiens, UniProt P32302); test: cell-based; design: Eurofins Cerep functional GPCR screen, antagonist mode, inhibition of control agonist response; settings: read-out: % Inhibition of Control Agonist Response, Mean
CysLT2 (LTC4) = target: T9, CysLT2 (LTC4) (Homo sapiens, UniProt Q9NS75); test: cell-based; design: Eurofins Cerep functional GPCR screen, antagonist mode, inhibition of control agonist response; settings: read-out: % Inhibition of Control Agonist Response, Mean
T9 construct: gene CYSLTR2

D1 = target: T10, D1 (Homo sapiens, UniProt P21728); test: cell-based; design: Eurofins Cerep functional GPCR screen, antagonist mode, inhibition of control agonist response; settings: read-out: % Inhibition of Control Agonist Response, Mean
T10 construct: gene DRD1

ETB = target: T11, ETB (Homo sapiens, UniProt P24530); test: cell-based; design: Eurofins Cerep functional GPCR screen, antagonist mode, inhibition of control agonist response; settings: read-out: % Inhibition of Control Agonist Response, Mean
T11 construct: gene EDNRB

FFA4 (GPR120) = target: T12, FFA4 (GPR120) (Homo sapiens, UniProt Q5NUL3); test: cell-based; design: Eurofins Cerep functional GPCR screen, antagonist mode, inhibition of control agonist response; settings: read-out: % Inhibition of Control Agonist Response, Mean
T12 construct: gene FFAR4

FPR1 = FPR1 (Homo sapiens, UniProt P21462); test: cell-based; design: Eurofins Cerep functional GPCR screen, antagonist mode, inhibition of control agonist response; settings: read-out: % Inhibition of Control Agonist Response, Mean
GABAB1b beta = target: T13, GABAB1b beta (Homo sapiens, UniProt Q9UBS5); test: cell-based; design: Eurofins Cerep functional GPCR screen, antagonist mode, inhibition of control agonist response; settings: read-out: % Inhibition of Control Agonist Response, Mean
T13 construct: gene GABBR1; GABAB1b isoform

Ghrelin / GHSR-1a = target: T14, Ghrelin / GHSR-1a (Homo sapiens, UniProt Q92847); test: cell-based; design: Eurofins Cerep functional GPCR screen, antagonist mode, inhibition of control agonist response; settings: read-out: % Inhibition of Control Agonist Response, Mean
T14 construct: GHSR-1a isoform

H4 = target: T15, H4 (Homo sapiens, UniProt Q9H3N8); test: cell-based; design: Eurofins Cerep functional GPCR screen, antagonist mode, inhibition of control agonist response; settings: read-out: % Inhibition of Control Agonist Response, Mean
T15 construct: gene HRH4

XCR1 / GPR5 = XCR1 / GPR5 (Homo sapiens, UniProt P46094); test: cell-based; design: Eurofins Cerep functional GPCR screen, antagonist mode, inhibition of control agonist response; settings: read-out: % Inhibition of Control Agonist Response, Mean
alpha 1D = target: T16, alpha 1D (Homo sapiens, UniProt P25100); test: cell-based; design: Eurofins Cerep functional GPCR screen, antagonist mode, inhibition of control agonist response; settings: read-out: % Inhibition of Control Agonist Response, Mean
T16 construct: gene ADRA1D

α1A = target: T17, α1A (Homo sapiens, UniProt P35348); test: cell-based; design: Eurofins Cerep functional GPCR screen, antagonist mode, inhibition of control agonist response; settings: read-out: % Inhibition of Control Agonist Response, Mean
T17 construct: gene ADRA1A

α2C = target: T18, α2C (Homo sapiens, UniProt P18825); test: cell-based; design: Eurofins Cerep functional GPCR screen, antagonist mode, inhibition of control agonist response; settings: read-out: % Inhibition of Control Agonist Response, Mean
T18 construct: gene ADRA2C

β1 = target: T19, β1 (Homo sapiens, UniProt P08588); test: cell-based; design: Eurofins Cerep functional GPCR screen, antagonist mode, inhibition of control agonist response; settings: read-out: % Inhibition of Control Agonist Response, Mean
T19 construct: gene ADRB1
T19 sequence (P08588 whole entry): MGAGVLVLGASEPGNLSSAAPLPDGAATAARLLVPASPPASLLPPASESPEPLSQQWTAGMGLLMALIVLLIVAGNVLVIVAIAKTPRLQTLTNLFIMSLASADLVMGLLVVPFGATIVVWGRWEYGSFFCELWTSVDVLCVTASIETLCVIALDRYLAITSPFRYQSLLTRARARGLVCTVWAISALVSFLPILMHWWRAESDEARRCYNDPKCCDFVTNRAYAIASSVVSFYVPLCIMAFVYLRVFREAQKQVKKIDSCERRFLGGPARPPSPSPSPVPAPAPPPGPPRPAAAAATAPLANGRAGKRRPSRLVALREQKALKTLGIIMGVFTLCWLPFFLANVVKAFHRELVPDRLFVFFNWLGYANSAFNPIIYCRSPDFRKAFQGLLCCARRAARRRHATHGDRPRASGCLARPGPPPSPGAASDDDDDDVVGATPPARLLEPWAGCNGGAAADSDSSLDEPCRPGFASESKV

Chain of CCR2 (P41597 whole entry): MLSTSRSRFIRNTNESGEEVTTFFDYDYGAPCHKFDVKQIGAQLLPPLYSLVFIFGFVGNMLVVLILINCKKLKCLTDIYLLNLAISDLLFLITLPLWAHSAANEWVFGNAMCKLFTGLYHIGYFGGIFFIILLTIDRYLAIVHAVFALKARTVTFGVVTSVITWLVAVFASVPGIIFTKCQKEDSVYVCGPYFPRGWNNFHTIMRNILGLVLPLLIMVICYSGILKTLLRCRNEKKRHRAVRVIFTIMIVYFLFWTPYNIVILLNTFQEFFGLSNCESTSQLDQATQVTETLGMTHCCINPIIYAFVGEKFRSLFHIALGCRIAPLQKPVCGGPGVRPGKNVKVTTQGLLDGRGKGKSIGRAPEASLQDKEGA
T17 sequence (P35348 whole entry): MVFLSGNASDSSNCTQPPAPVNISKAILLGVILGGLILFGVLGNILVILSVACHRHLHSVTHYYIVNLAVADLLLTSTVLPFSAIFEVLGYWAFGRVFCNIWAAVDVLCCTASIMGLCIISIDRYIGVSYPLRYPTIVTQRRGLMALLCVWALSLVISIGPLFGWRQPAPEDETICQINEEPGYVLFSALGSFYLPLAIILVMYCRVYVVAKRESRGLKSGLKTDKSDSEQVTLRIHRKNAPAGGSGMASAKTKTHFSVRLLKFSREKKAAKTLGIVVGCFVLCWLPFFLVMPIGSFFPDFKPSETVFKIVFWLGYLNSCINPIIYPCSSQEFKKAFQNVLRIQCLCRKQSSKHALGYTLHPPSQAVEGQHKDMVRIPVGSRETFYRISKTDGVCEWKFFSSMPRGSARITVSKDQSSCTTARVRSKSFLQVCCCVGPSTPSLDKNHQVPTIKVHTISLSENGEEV
T9 sequence (Q9NS75 whole entry): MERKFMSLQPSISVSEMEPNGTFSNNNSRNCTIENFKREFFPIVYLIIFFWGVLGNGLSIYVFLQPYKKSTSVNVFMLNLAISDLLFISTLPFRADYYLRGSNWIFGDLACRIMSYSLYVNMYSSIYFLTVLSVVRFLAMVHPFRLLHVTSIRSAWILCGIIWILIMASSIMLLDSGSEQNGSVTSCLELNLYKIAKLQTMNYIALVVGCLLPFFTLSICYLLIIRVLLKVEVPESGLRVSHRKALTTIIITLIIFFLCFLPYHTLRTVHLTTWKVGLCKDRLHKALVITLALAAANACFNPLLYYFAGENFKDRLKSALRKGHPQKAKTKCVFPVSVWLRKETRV
T16 sequence (P25100 whole entry): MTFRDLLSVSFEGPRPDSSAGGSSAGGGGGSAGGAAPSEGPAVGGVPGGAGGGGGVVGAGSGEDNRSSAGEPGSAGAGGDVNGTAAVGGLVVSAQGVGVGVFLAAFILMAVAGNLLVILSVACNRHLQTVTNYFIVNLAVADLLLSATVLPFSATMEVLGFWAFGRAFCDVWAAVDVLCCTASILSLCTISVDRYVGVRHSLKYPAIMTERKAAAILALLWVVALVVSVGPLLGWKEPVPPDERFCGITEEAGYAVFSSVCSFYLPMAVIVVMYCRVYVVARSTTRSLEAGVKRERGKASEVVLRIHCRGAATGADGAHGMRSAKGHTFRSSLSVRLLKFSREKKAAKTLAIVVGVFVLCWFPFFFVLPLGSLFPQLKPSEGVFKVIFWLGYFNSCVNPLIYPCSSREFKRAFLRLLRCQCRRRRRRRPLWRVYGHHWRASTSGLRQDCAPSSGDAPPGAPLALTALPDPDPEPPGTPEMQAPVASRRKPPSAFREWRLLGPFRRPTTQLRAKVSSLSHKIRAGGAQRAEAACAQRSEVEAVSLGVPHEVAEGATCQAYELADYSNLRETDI
T7 sequence (Q15722 whole entry): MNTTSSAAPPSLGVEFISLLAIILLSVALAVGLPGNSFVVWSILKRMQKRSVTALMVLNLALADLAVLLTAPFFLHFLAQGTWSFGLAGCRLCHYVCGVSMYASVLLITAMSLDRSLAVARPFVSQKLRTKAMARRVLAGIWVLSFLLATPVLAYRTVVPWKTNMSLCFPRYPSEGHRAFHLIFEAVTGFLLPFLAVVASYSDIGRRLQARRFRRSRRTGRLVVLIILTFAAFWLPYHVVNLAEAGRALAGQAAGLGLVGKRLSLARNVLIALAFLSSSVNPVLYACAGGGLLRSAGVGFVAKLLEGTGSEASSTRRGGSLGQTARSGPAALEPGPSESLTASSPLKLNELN
T2 sequence (P61075 whole entry): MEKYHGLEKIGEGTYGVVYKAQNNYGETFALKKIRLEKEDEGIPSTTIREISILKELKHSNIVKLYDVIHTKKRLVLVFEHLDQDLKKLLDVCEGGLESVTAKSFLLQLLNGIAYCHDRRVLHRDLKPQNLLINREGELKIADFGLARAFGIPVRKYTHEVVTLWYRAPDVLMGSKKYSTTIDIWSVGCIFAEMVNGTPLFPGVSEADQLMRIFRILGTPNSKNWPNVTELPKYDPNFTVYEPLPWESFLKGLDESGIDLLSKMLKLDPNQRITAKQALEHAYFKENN
T3 sequence (P35414 whole entry): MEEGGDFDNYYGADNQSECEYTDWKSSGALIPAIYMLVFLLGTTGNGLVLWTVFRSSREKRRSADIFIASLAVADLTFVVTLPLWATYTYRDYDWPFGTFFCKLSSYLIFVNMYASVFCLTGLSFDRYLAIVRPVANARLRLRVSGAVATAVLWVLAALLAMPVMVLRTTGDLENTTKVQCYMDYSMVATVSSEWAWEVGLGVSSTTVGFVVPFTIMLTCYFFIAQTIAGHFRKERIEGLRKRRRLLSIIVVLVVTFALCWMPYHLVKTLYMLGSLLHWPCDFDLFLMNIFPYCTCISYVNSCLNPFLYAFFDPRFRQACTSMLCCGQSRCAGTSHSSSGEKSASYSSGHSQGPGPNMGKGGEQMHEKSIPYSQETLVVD
T12 sequence (Q5NUL3 whole entry): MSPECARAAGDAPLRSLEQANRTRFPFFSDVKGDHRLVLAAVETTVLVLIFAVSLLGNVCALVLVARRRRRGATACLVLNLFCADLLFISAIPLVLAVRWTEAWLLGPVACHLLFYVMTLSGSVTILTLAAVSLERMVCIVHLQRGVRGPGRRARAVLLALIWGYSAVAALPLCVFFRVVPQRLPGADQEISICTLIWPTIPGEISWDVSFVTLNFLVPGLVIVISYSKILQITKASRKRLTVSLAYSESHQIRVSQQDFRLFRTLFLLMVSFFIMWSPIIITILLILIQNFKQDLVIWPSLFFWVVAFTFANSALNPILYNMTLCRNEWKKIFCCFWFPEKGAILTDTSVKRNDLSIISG
T6 sequence (P30550 whole entry): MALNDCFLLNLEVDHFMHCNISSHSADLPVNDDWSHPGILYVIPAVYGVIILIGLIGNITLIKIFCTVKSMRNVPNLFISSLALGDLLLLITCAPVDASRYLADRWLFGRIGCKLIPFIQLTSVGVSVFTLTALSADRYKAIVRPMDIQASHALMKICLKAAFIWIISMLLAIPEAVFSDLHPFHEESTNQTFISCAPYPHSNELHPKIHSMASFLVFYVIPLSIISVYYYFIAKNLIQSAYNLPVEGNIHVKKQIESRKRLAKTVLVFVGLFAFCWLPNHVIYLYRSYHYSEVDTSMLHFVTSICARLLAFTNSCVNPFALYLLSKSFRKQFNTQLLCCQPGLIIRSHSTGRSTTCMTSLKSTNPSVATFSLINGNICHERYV
Chain of CXCR5 (P32302 whole entry): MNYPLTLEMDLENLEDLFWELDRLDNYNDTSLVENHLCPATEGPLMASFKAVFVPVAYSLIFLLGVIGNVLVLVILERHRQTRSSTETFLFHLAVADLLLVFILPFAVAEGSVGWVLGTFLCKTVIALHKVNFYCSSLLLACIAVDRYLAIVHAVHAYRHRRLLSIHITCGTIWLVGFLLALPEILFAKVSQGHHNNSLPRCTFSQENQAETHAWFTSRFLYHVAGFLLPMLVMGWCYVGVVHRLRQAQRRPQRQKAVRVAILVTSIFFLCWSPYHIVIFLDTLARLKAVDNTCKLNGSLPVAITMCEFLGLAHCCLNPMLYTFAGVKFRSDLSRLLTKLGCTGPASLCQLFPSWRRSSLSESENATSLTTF
Chain of CX3CR1 (P49238 whole entry): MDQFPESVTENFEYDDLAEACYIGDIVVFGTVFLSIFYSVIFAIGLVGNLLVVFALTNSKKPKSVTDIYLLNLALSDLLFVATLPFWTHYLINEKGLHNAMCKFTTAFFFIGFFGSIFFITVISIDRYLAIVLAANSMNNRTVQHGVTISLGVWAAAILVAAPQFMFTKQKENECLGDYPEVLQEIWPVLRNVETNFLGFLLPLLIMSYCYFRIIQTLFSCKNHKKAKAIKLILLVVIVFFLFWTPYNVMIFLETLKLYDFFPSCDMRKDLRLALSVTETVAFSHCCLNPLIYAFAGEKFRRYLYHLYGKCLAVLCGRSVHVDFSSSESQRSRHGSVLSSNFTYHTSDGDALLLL

Q: With `[O-][S@@+](Cc1cncs1)C(c1ccccc1)c1ccccc1` [S-CE-123, (S)-5-((Benzhydrylsulfinyl)Methyl)Thiazole] as the compound, how does the remaining binding at 2.8 µM (PFCDPK1(P.falciparum)) read?
A: 70%

Q: And the remaining binding at 2.8 µM (PFPK5(P.falciparum))?
A: 84%

Q: And the inhibition at 2.8 µM (APJ (apelin))?
A: 6.2%

Q: What about the inhibition at 2.8 µM (AT1) of the same compound?
A: 3%

Q: What about the inhibition at 2.8 µM (B1) of the same compound?
A: -10.4%

Q: What about the inhibition at 2.8 µM (BB2) of the same compound?
A: -23.2%

Q: And the inhibition at 2.8 µM (BLT1 (LTB4))?
A: -4.7%

Q: What about the inhibition at 2.8 µM (CCK1 (CCKA)) of the same compound?
A: 18.2%

Q: What about the inhibition at 2.8 µM (CCR2) of the same compound?
A: 2%

Q: What about the inhibition at 2.8 µM (CCR7) of the same compound?
A: 2.8%

Q: And the inhibition at 2.8 µM (CX3CR1)?
A: -15.8%

Q: What about the inhibition at 2.8 µM (CXCR5) of the same compound?
A: -1.9%

Q: And the inhibition at 2.8 µM (CysLT2 (LTC4))?
A: 4.5%

Q: And the inhibition at 2.8 µM (D1)?
A: -5.6%

Q: What about the inhibition at 2.8 µM (ETB) of the same compound?
A: 1.5%

Q: What about the inhibition at 2.8 µM (FFA4 (GPR120)) of the same compound?
A: -14.4%

Q: And the inhibition at 2.8 µM (FPR1)?
A: 1.6%

Q: And the inhibition at 2.8 µM (GABAB1b beta)?
A: -10.6%

Q: And the inhibition at 2.8 µM (Ghrelin / GHSR-1a)?
A: -11.7%

Q: What about the inhibition at 2.8 µM (H4) of the same compound?
A: 3.4%

Q: What about the inhibition at 2.8 µM (XCR1 / GPR5) of the same compound?
A: -9.2%

Q: And the inhibition at 2.8 µM (alpha 1D)?
A: -2.4%

Q: What about the inhibition at 2.8 µM (α1A) of the same compound?
A: 3.1%

Q: And the inhibition at 2.8 µM (α2C)?
A: 0.3%

Q: What about the inhibition at 2.8 µM (β1) of the same compound?
A: 18.4%
